Laboratory results as given in ChEMBL document CHEMBL3046942, “Synthesis and biological activity of new cycloalkylthiophene-Schiff bases and their Cr(III) and Zn(II) complexes” (2010).
Activity calls are given as the source filed them. The calls are words filed in the database; no cut-off is given here.

Experiments:
Format in all cases: functional
[1] = test system: Escherichia coli; assay: Antibacterial activity against Escherichia coli ATCC 1280 at 0.25 ug/ml after 24 hr by agar well diffusion method; conditions: ATCC 1280, 24 h, read-out: DIZ
[2] = test system: Proteus; assay: Antibacterial activity against Proteus OX2 Wrah at 0.25 ug/ml after 24 hr by agar well diffusion method
[3] = test system: Candida albicans; assay: Antifungal activity against Candida albicans Y-1200-NIH at 0.25 ug/ml after 24 hr by agar well diffusion method; conditions: for zone of inhibition at 0.25 µg/mL: read-out: DIZ
[4] = test system: Shigella boydii; assay: Antibacterial activity against Shigella boydii type 16 at 0.25 ug/ml after 24 hr by agar well diffusion method; conditions: type 16, 24 h, read-out: DIZ
[5] = test system: Brucella abortus; assay: Antibacterial activity against Brucella abortus RSKK-03026 at 0.25 ug/ml after 24 hr by agar well diffusion method
[6] = test system: Salmonella typhimurium; assay: Antibacterial activity against Salmonella enterica subsp. enterica serovar Typhi H NCTC 901.8394 at 0.25 ug/ml after 24 hr by agar well diffusion method; conditions: H NCTC 901.8394, 24 h, read-out: DIZ
[7] = test system: Shigella boydii; assay: Antibacterial activity against Shigella boydii type 11 at 0.25 ug/ml after 24 hr by agar well diffusion method; conditions: type 11, 24 h, read-out: DIZ
[8] = test system: Shigella boydii; assay: Antibacterial activity against Shigella boydii type 6 RSKK-96043 at 0.25 ug/ml after 24 hr by agar well diffusion method; conditions: type 6 RSKK-96043, 24 h, read-out: DIZ
[9] = test system: Listeria monocytogenes; assay: Antibacterial activity against Listeria monocytogenes ATCC 19115 at 0.25 ug/ml after 24 hr by agar well diffusion method; conditions: for zone of inhibition at 0.25 µg/mL: ATCC 19115, 24 h, read-out: DIZ
[10] = test system: Pseudomonas putida; assay: Antibacterial activity against Pseudomonas putida at 0.25 ug/ml after 24 hr by agar well diffusion method; conditions: for zone of inhibition at 0.25 µg/mL: read-out: DIZ
[11] = test system: Staphylococcus aureus; assay: Antibacterial activity against Staphylococcus aureus ATCC 25923 at 0.25 ug/ml after 24 hr by agar well diffusion method; conditions: ATCC 25923, 24 h, read-out: DIZ
[12] = test system: Staphylococcus aureus; assay: Antibacterial activity against Staphylococcus aureus ATCC 25923 at 30 ug after 24 hr by agar well diffusion method; conditions: ATCC 25923, 24 h, read-out: DIZ
[13] = test system: Proteus; assay: Antibacterial activity against Proteus OX2 Wrah at 30 ug after 24 hr by agar well diffusion method; conditions: read-out: DIZ
[14] = test system: Salmonella typhimurium; assay: Antibacterial activity against Salmonella enterica subsp. enterica serovar Typhi H NCTC 901.8394 at 30 ug after 24 hr by agar well diffusion method; conditions: H NCTC 901.8394, 24 h, read-out: DIZ
[15] = test system: Shigella boydii; assay: Antibacterial activity against Shigella boydii type 11 at 30 ug after 24 hr by agar well diffusion method; conditions: type 11, 24 h, read-out: DIZ
[16] = test system: Listeria monocytogenes; assay: Antibacterial activity against Listeria monocytogenes ATCC 19115 at 30 ug after 24 hr by agar well diffusion method; conditions: ATCC 19115, 24 h, read-out: DIZ
[17] = test system: Pseudomonas putida; assay: Antibacterial activity against Pseudomonas putida at 30 ug after 24 hr by agar well diffusion method; conditions: read-out: DIZ
[18] = test system: Escherichia coli; assay: Antibacterial activity against Escherichia coli ATCC 1280 at 30 ug after 24 hr by agar well diffusion method; conditions: ATCC 1280, 24 h, read-out: DIZ
[19] = test system: Shigella boydii; assay: Antibacterial activity against Shigella boydii type 6 RSKK-96043 at 30 ug after 24 hr by agar well diffusion method; conditions: type 6 RSKK-96043, 24 h, read-out: DIZ
[20] = test system: Shigella boydii; assay: Antibacterial activity against Shigella boydii type 16 at 30 ug after 24 hr by agar well diffusion method; conditions: type 16, 24 h, read-out: DIZ

Structure (SMILES) | zone of inhibition at 0.25 µg/mL [1] | zone of inhibition at 0.25 µg/mL [3] | zone of inhibition at 0.25 µg/mL [4] | diameter of the inhibition zone (DIZ) [5] | zone of inhibition at 0.25 µg/mL [6] | zone of inhibition at 0.25 µg/mL [7] | zone of inhibition at 0.25 µg/mL [8] | zone of inhibition at 0.25 µg/mL [9] | zone of inhibition at 0.25 µg/mL [10] | zone of inhibition at 0.25 µg/mL [11] | diameter of the inhibition zone (DIZ) [2] | also measured
CCOC(=O)c1c(/N=C/c2c(O)ccc3ccccc23)sc2c1CCC2 | 6 mm | 14 mm | 7 mm | inactive | 6 mm | 8 mm | 6 mm | 7 mm | 8 mm | 14 mm | – | zone of inhibition at 0.25 µg/mL ([2]; read-out: DIZ): 5 mm
CCOC(=O)c1c(/N=C/c2c(O)ccc3ccccc23)sc2c1CCCC2 | 6 mm | – | 8 mm | inactive | 7 mm | 7 mm | 7 mm | 9 mm | 7 mm | 9 mm | inactive | diameter of the inhibition zone (DIZ) [3]: inactive
CCOC(=O)c1c(/N=C/c2c(O)ccc3ccccc23)sc2c1CCCCC2 | 9 mm | 11 mm | 8 mm | – | 8 mm | 8 mm | 7 mm | – | – | 9 mm | inactive | zone of inhibition at 0.25 µg/mL ([5]; RSKK-03026, 24 h, read-out: DIZ): 5 mm; diameter of the inhibition zone (DIZ) [9]: inactive; diameter of the inhibition zone (DIZ) [10]: inactive
CC1(C)S[C@@H]2[C@H](NC(=O)[C@H](N)c3ccc(O)cc3)C(=O)N2[C@H]1C(=O)O [AMOXICILLIN] | – | – | – | – | – | – | – | – | – | – | – | zone of inhibition at 30 µg/disc [12]: 30 mm; zone of inhibition at 30 µg/disc [13]: 17 mm; zone of inhibition at 30 µg/disc [14]: 19 mm; zone of inhibition at 30 µg/disc [15]: 24 mm; zone of inhibition at 30 µg/disc [16]: 22 mm; zone of inhibition at 30 µg/disc [17]: 15 mm; zone of inhibition at 30 µg/disc [18]: 14 mm; zone of inhibition at 30 µg/disc [19]: 19 mm; zone of inhibition at 30 µg/disc [20]: 14 mm
